Measurements from publication PMC5684143, “New melanocortin-like peptide of E. coli can suppress inflammation via the mammalian melanocortin-1 receptor (MC1R): possible endocrine-like function for microbes of the gut” (NPJ Biofilms and Microbiomes, 2017).

What was measured:
RAW 264.7 cells [1] = assay: LPS-induced HMGB1 release by RAW 264.7 cells (western blot); type: cell-based, murine; settings: LPS 100 ng/ml, peptide 10^-10 M, 16-20 hrs, four independent experiments, P < 0.01
Method: Murine macrophage-like RAW 264.7 cells were obtained from American Type Culture Collection, and were grown in Dulbecco’s Modified Eagle’s Medium (DMEM, Life Technologies) containing 10% (vol/vol) heat-inactivated fetal bovine serum (FBS, Hyclone Lab. Inc.), penicillin 100 U/ml, and streptomycin 100 μg/ml (BioWhittaker Inc.). Cells were suspended in medium and incubated in 24-well or 48-well tissue-culture plates overnight in a humidified incubator (37 °C, 5% CO2). Growth medium was removed and replaced by Opti-MEM I serum-free medium (Life Technologies) overnight. […]
The levels of HMGB1 in the culture medium or murine serum were measured by western immunoblotting as previously described.[30] […] The relative band intensity was quantified by using the NIH image 1.59 software. The levels of HMGB1 (expressed as % maximum effect) were calculated with reference to standard curves generated with purified rHMGB1 and expressed as mean ± SEM of four experiments.
Murine macrophage-like RAW 264.7 cells were incubated with LPS (100 ng/ml) in the absence or presence of MECO-1 or alpha-MSH at 10^-10 M. At 16-20 hrs after stimulation, aliquots of cell-free medium were examined. HMGB1 levels in the (conditioned) culture medium were expressed as mean ± SEM of four independent experiments with the peak level (obtained with LPS) set at 100%. […]

RAW 264.7 cells [2] = assay: LPS-induced TNF release by RAW 264.7 cells; type: cell-based, murine; settings: for TNF-accumulated (% of control): peptide 10^-12 M, LPS 10 ng/ml, TNF by ELISA at 6 h, LPS alone set at 100%, mean ± SEM
Method: Murine macrophage-like RAW 264.7 cells were obtained from American Type Culture Collection, and were grown in Dulbecco’s Modified Eagle’s Medium (DMEM, Life Technologies) containing 10% (vol/vol) heat-inactivated fetal bovine serum (FBS, Hyclone Lab. Inc.), penicillin 100 U/ml, and streptomycin 100 μg/ml (BioWhittaker Inc.). Cells were suspended in medium and incubated in 24-well or 48-well tissue-culture plates overnight in a humidified incubator (37 °C, 5% CO2). Growth medium was removed and replaced by Opti-MEM I serum-free medium (Life Technologies) overnight. In the experiments, cell monolayers were stimulated with HMGB1 or LPS, in the absence or presence of MECO-1 or alpha-MSH; cell-free supernatants were assayed for TNF by ELISA or HMGB1 by western blotting.
Concentrations of TNF and IL-6 were each determined using a commercially available enzyme-linked immunosorbent assay (ELISA) kit (R&D System Inc.) as previously described.[34] The levels of TNF or IL-6 were calculated with reference to standard curves.
Fig. 2 Cytokine-induced TNF release inhibited by MECO-1. a Lipopolysaccharide (LPS), derived from the cell wall of Gram-negative bacteria, is a TLR4 and TLR2 agonist. RAW 264.7 cells were treated with MECO-1 and LPS simultaneously and incubated overnight. Supernatants were tested for TNF with ELISA. b Poly I:C, synthetic double stranded RNA, is recognized by TLR3. RAW 264.7 cells were pre-treated with MECO-1 and then stimulated with Poly I:C. Supernatants were tested in ELISA by TNF. c Peptidoglycan (PGN), another TLR2 agonist, is ubiquitous in the cell wall of bacteria. RAW 264.7 cells were pre-treated with MECO-1 and then stimulated with PGN; after overnight stimulation, supernatants were harvested and tested for TNF ELISA. d HMGB-1. Each vertical bar is the mean of three experimental points, using HMGB-1 to induce TNF release. Three sets of three experiments were used for the measurement of inhibition
Fig. 5 a Bioactive analogues of MECO-1. Murine macrophage-like RAW 264.7 cells were incubated with lipopolysaccharide (LPS, 4 ng/ml) in the absence or presence of MECO-1 or BACTN or BACFR, synthetic peptides based on the C-termini of EF-G of Bacteroides thetaiotamicron and Bacteroides fragilis. EFG-2 refers to human mitochondrial EFG-2 (mtEFG2). For Bacteroides thetaiotamicron, we used a 38-mer consisting of residues 681–703 shown in Fig. 4c followed by 704–718 QDKLIKDFEAKQTEE. For Bacteroides fragilis, we used a 33-mer consisting of residues, 681–703 shown in Fig. 4c followed by 704–713 = QDKLIKDFES. At 6 h after stimulation, aliquots of cell-free medium were examined. In other experiments, the synthetic peptide based on human mitochondrial EF-G1 (mtEFG1) gave results indistinguishable from EF-G2 (data not shown). The precise structure of the synthetic peptides is indicated in the text (see section “Results” and Table 1). Shown is a representative experiment.

alpha-melanocyte-stimulating hormone [alpha-MSH]
LPS-induced HMGB-1 secretion (RAW 264.7 cells [1]): markedly reduced | peptide concentration at which attenuation of LPS-induced TNF-alpha release was observed (RAW 264.7 cells [2]; RAW 264.7 cells, overnight incubation, ELISA): 10^−15 M | TNF-accumulated (% of control) (RAW 264.7 cells [2]; agouti 0 pM, RAW 264.7 cells): 67.05 ± 10.2 % of control | TNF-accumulated (% of control) (RAW 264.7 cells [2]; agouti 10 pM, RAW 264.7 cells): 132.6 ± 4.9 % of control | TNF-accumulated (% of control) (RAW 264.7 cells [2]; agouti 10^3 pM, RAW 264.7 cells): 138.6 ± 12.4 % of control | TNF-accumulated (% of control) (RAW 264.7 cells [2]; agouti 10^5 pM, RAW 264.7 cells): 122.2 ± 4.3 % of control | inhibition of LPS-induced TNF-alpha release (valley) (RAW 264.7 cells [2]; at 10^−11–10^−10 M peptide, attenuation lost above 10^−10 M): ~90%
